{"source": "patent US12029803B2", "about": "“Personal cleansing compositions, methods and uses” (The Procter & Gamble Company, priority 2021, dated 2024)", "test": "Observations of appearance, structure and phase separation (Centrifuge Test)", "assay_type": "physicochemical", "conditions": "sulfate", "note": "“Also recorded” adds a separate entry of the source.", "data": [{"smiles": "CCCCCCCCCCCCCOS(=O)(=O)[O-].[Na+]", "note": "[non-ethoxylated sodium tridecyl sulfate, sodium tridecyl sulfate]", "values": [{"measurement": "lamellar phase formation of personal cleansing compositions comprising the surfactant", "value": "did not form lamellar phase; also recorded: unable to produce a stable lamellar phase"}]}]}
